From ChEMBL document CHEMBL3880410, “Novel oxabispidine compounds and their use in the treatment of cardiac arrhythmias” (2009) come the findings set out here.

In the experiment the test system is Cavia porcellus. Briefly: Anti-cardiac arrhythmia activity in anaesthetised guinea pig assessed as cumulative dose inducing prolongation of monophasic action potential duration by 10% from baseline administered as first dose infusion in 0.2 mL/kg into jugular vein catheter for 30 secs followed by next dosing after 5 mins for 6 to 10 consecutive times by electrophysiology based assay. The format is functional.
Consider `Cc1[nH]c2ccccc2c1CN1CC2CN(CCNS(=O)(=O)c3ccc(C#N)cc3)CC(C1)O2`, for which the D10 is above 5.5 mg/kg.
As to `N#Cc1ccc(S(=O)(=O)NCCN2CC3CN(Cc4ccccc4C#N)CC(C2)O3)cc1`, the D10 is above 5.5 mg/kg.
In the case of `N#Cc1ccc(S(=O)(=O)NCCN2CC3CN(CCCOc4c(F)cc(C#N)cc4F)CC(C2)O3)cc1`, the D10 was above 5.5 mg/kg.
For `CN(CCN1CC2CN(CCc3ccc(Cl)cc3)CC(C1)O2)S(=O)(=O)c1ccc(C#N)cc1` the value was above 5.5 mg/kg; for `O=S(=O)(NCCN1CC2CN(CCc3ccccc3F)CC(C1)O2)c1ccc(F)cc1`, above 5.5 mg/kg; for `Cc1noc(C)c1S(=O)(=O)NCCN1CC2CN(Cc3ccc(C#N)cc3)CC(C1)O2`, above 5.5 mg/kg.
The figure for `COc1ccc(S(=O)(=O)NCCN2CC3CN(CCOc4ccc(C#N)cc4)CC(C2)O3)cc1` is above 5.5 mg/kg.
Regarding `N#Cc1ccc(S(=O)(=O)NCCN2CC3CN(CCc4ccccc4F)CC(C2)O3)cc1`, the D10 was above 5.5 mg/kg.
For `CC(C)(C)OC(=O)NCCN1CC2CN(CCNS(=O)(=O)c3ccc(F)cc3)CC(C1)O2` the value was above 5.5 mg/kg; for `N#Cc1ccc(S(=O)(=O)NCCN2CC3CN(CCc4ccc(F)c(F)c4)CC(C2)O3)cc1`, above 5.5 mg/kg; for `N#Cc1ccc(OCCN2CC3CN(CCNS(=O)(=O)Cc4ccccc4)CC(C2)O3)c(F)c1`, above 5.5 mg/kg.
The figure for `Cc1noc(C)c1CN1CC2CN(CCNS(=O)(=O)c3ccc(C#N)cc3)CC(C1)O2` is above 5.5 mg/kg; for `O=S(=O)(NCCN1CC2CN(CCc3ccccc3)CC(C1)O2)c1ccc(F)cc1` it is above 5.5 mg/kg; for `N#Cc1ccc(OCCCN2CC3CN(CCNS(=O)(=O)c4ccccc4C#N)CC(C2)O3)cc1` it is above 5.5 mg/kg.
Consider `N#Cc1ccc(S(=O)(=O)NCCN2CC3CN(CCc4ccc(F)cc4F)CC(C2)O3)cc1`, for which the D10 was above 5.5 mg/kg.
The figure for `N#Cc1ccc(OCCN2CC3CN(CCCNS(=O)(=O)c4ccc(F)cc4F)CC(C2)O3)cc1` is above 5.5 mg/kg; for `N#Cc1ccc(S(=O)(=O)NCCN2CC3CN(Cc4noc5ccccc45)CC(C2)O3)cc1` it is above 5.5 mg/kg; for `O=S(=O)(NCCN1CC2CN(Cc3ccccc3)CC(C1)O2)c1ccc(F)cc1` it is above 5.5 mg/kg.
Take `N#Cc1ccc(S(=O)(=O)NCCN2CC3CN(CCCOc4ccccc4F)CC(C2)O3)cc1`: the D10 is above 5.5 mg/kg.
For `Cc1noc(C)c1S(=O)(=O)NCCCN1CC2CN(Cc3ccc(C#N)cc3)CC(C1)O2` the value was above 5.5 mg/kg; for `N#Cc1ccc(OCCCN2CC3CN(CCNS(=O)(=O)c4ccc(F)cc4F)CC(C2)O3)cc1`, above 5.5 mg/kg; for `Cc1cc(C)n(CCN2CC3CN(CCNS(=O)(=O)c4ccc(C#N)cc4)CC(C2)O3)n1`, above 5.5 mg/kg.
For `N#Cc1ccc(OCCCN2CC3CN(CCNS(=O)(=O)Cc4ccccc4)CC(C2)O3)cc1` the value was above 5.5 mg/kg; for `N#Cc1ccc(CCN2CC3CN(CCNS(=O)(=O)c4ccc(F)cc4)CC(C2)O3)cc1`, above 5.5 mg/kg; for `N#Cc1ccc(OCCN2CC3CN(CCNS(=O)(=O)c4ccccc4F)CC(C2)O3)cc1`, above 5.5 mg/kg.
Regarding `N#Cc1ccc(OCCN2CC3CN(CCNS(=O)(=O)c4ccc5c(c4)CCO5)CC(C2)O3)c(F)c1`, the D10 is above 5.5 mg/kg.
The figure for `CN(CCN1CC2CN(Cc3ccc(C#N)cc3)CC(C1)O2)S(=O)(=O)c1ccc(C#N)cc1` is above 5.5 mg/kg; for `N#Cc1ccc(OCCN2CC3CN(CCNS(=O)(=O)Cc4ccccc4)CC(C2)O3)cc1` it is above 5.5 mg/kg.
For `N#Cc1ccc(S(=O)(=O)NCCN2CC3CN(Cc4ccc(F)cc4)CC(C2)O3)cc1` the value was above 5.5 mg/kg; for `O=S(=O)(NCCN1CC2CN(Cc3ccc(F)cc3)CC(C1)O2)c1ccc(F)cc1`, above 5.5 mg/kg.
With `N#Cc1ccc(S(=O)(=O)NCCN2CC3CN(CCOc4c(F)cccc4F)CC(C2)O3)cc1`, the D10 was above 5.5 mg/kg.
With `N#Cc1ccc(OCCN2CC3CN(CCNS(=O)(=O)c4ccccc4C#N)CC(C2)O3)cc1`, the D10 is above 5.5 mg/kg.
In the case of `N#Cc1ccc(OCCN2CC3CN(CCCNS(=O)(=O)c4ccc(F)cc4)CC(C2)O3)cc1`, the D10 is above 5.5 mg/kg.
The figure for `N#Cc1ccc(S(=O)(=O)NCCCN2CC3CN(CCc4cccc(F)c4)CC(C2)O3)cc1` is above 5.5 mg/kg; for `CS(=O)(=O)NCCN1CC2CN(CCCOc3ccc(C#N)cc3)CC(C1)O2` it is above 5.5 mg/kg.
`N#Cc1ccc(S(=O)(=O)NCCN2CC3CN(Cc4c[nH]c5ccc(F)cc45)CC(C2)O3)cc1`: the D10 was above 5.5 mg/kg.
For `N#Cc1ccc(S(=O)(=O)NCCN2CC3CN(CCOc4ccccc4F)CC(C2)O3)cc1` the value was above 5.5 mg/kg; for `N#Cc1ccc(OCCCN2CC3CN(CCCNS(=O)(=O)Cc4ccccc4)CC(C2)O3)cc1`, above 5.5 mg/kg; for `O=S(=O)(NCCN1CC2CN(CCc3ccc(F)cc3)CC(C1)O2)c1ccc(F)cc1`, above 5.5 mg/kg.
For `N#Cc1ccc(OCCN2CC3CN(CCNS(=O)(=O)c4ccccc4)CC(C2)O3)c(F)c1` the value was above 5.5 mg/kg; for `CN(CCN1CC2CN(CCCOc3ccc(F)cc3F)CC(C1)O2)S(=O)(=O)c1ccc(C#N)cc1`, above 5.5 mg/kg.
As to `N#Cc1ccc(OCCCN2CC3CN(CCNS(=O)(=O)Cc4ccc(C(F)(F)F)cc4)CC(C2)O3)cc1`, the D10 is above 5.5 mg/kg.
Take `N#Cc1ccc(S(=O)(=O)NCCN2CC3CN(Cc4ccc(OC(F)F)cc4)CC(C2)O3)cc1`: the D10 is above 5.5 mg/kg.
Take `N#Cc1ccc(S(=O)(=O)NCCCN2CC3CN(CCOc4c(F)cccc4F)CC(C2)O3)cc1`: the D10 was above 5.5 mg/kg.
For `N#Cc1ccc(OCCCN2CC3CN(CCNS(=O)(=O)Cc4cccc(Cl)c4)CC(C2)O3)cc1` the value was above 5.5 mg/kg; for `CC(C)S(=O)(=O)NCCN1CC2CN(C[C@H](O)COc3ccc(C#N)cc3)CC(C1)O2`, above 5.5 mg/kg.
For `N#Cc1ccc(OCCCN2CC3CN(CCNS(=O)(=O)c4ccc(F)cc4)CC(C2)O3)cc1` the value was above 5.5 mg/kg.
For `N#Cc1ccc(OCCN2CC3CN(CCCNS(=O)(=O)Cc4ccccc4)CC(C2)O3)cc1` the value was above 5.5 mg/kg.
Regarding `CN(CCN1CC2CN(CCOc3ccc(C#N)cc3F)CC(C1)O2)S(=O)(=O)c1ccc2c(c1)CCO2`, the D10 was above 5.5 mg/kg.
With `N#Cc1ccc(OCCN2CC3CN(CCNS(=O)(=O)c4ccc5c(c4)CCO5)CC(C2)O3)cc1`, the D10 is above 5.5 mg/kg.
For `CN(CCN1CC2CN(CCc3ccc(F)cc3F)CC(C1)O2)S(=O)(=O)c1ccc(C#N)cc1` the value was above 5.5 mg/kg.
For `CC(C)(C)NS(=O)(=O)CCCN1CC2CN(CCCOc3ccc(C#N)cc3)CC(C1)O2`, the D10 was above 5.5 mg/kg.
As for `CN(CCN1CC2CN(CCc3ccccc3)CC(C1)O2)S(=O)(=O)c1ccc(C#N)cc1`, the D10 is above 5.5 mg/kg.
The figure for `N#Cc1ccc(CN2CC3CN(CCNS(=O)(=O)Cc4ccccc4)CC(C2)O3)cc1` is above 5.5 mg/kg; for `N#Cc1ccc(OCCCN2CC3CN(CCCNS(=O)(=O)c4ccccc4)CC(C2)O3)cc1` it is above 5.5 mg/kg; for `CN(CCN1CC2CN(CCOc3ccc(C#N)cc3)CC(C1)O2)S(=O)(=O)c1ccc2c(c1)CCO2` it is above 5.5 mg/kg.
For the molecule `Cc1oncc1S(=O)(=O)NCCN1CC2CN(CCCOc3ccc(C#N)cc3)CC(C1)O2`, the D10 was above 5.5 mg/kg.
For `CN(CCN1CC2CN(CCOc3c(F)cccc3F)CC(C1)O2)S(=O)(=O)c1ccc(C#N)cc1` the value was above 5.5 mg/kg.
In the case of `N#Cc1ccc(OCCN2CC3CN(CCNS(=O)(=O)c4ccc(F)cc4F)CC(C2)O3)cc1`, the D10 was above 5.5 mg/kg.
Consider `N#Cc1ccc(OCCN2CC3CN(CCNS(=O)(=O)Cc4cccc(Cl)c4)CC(C2)O3)cc1`, for which the D10 is above 5.5 mg/kg.
For `CN(CCN1CC2CN(Cc3ccc(F)cc3)CC(C1)O2)S(=O)(=O)c1ccc(C#N)cc1` the value was above 5.5 mg/kg.
For `N#Cc1ccc(S(=O)(=O)NCCN2CC3CN(CCOc4ccc(F)cc4)CC(C2)O3)cc1` the value was above 5.5 mg/kg.
For `N#Cc1ccc(S(=O)(=O)NCCN2CC3CN(Cc4nc5ccccc5o4)CC(C2)O3)cc1` the value was above 5.5 mg/kg; for `N#Cc1ccc(S(=O)(=O)NCCN2CC3CN(CCCOc4ccc(C#N)cc4F)CC(C2)O3)cc1`, above 5.5 mg/kg.
For the molecule `N#Cc1ccc(S(=O)(=O)NCCN2CC3CN(CCCOc4ccc(F)cc4)CC(C2)O3)cc1`, the D10 was above 5.5 mg/kg.
Turning to `N#Cc1ccc(OCCN2CC3CN(CCNS(=O)(=O)c4ccc(C#N)cc4)CC(C2)O3)cc1`, the D10 was above 5.5 mg/kg.
The figure for `CN(CCCN1CC2CN(CCOc3ccc(C#N)cc3F)CC(C1)O2)S(=O)(=O)c1ccccc1` is above 5.5 mg/kg; for `Cn1cnc(S(=O)(=O)NCCN2CC3CN(CCOc4ccc(C#N)cc4)CC(C2)O3)c1` it is above 5.5 mg/kg.
For `CS(=O)(=O)NCCN1CC2CN(CCOc3ccc(C#N)cc3)CC(C1)O2` the value was above 5.5 mg/kg.
With `N#Cc1ccc(S(=O)(=O)NCCCN2CC3CN(CCc4ccccc4F)CC(C2)O3)cc1`, the D10 was above 5.5 mg/kg.
As to `N#Cc1ccc(CN2CC3CN(CCNS(=O)(=O)c4ccccc4C#N)CC(C2)O3)cc1`, the D10 was above 5.5 mg/kg.
Take `CC(C)S(=O)(=O)NCCCN1CC2CN(CCCOc3ccc(C#N)cc3)CC(C1)O2`: the D10 is above 5.5 mg/kg.
As for `N#Cc1ccc(S(=O)(=O)NCCN2CC3CN(CCc4ccc(C(F)(F)F)cc4)CC(C2)O3)cc1`, the D10 is above 5.5 mg/kg.
For `N#Cc1ccc(OCCCN2CC3CN(CCNS(=O)(=O)c4cccc(C#N)c4)CC(C2)O3)cc1`, the D10 was above 5.5 mg/kg.
Take `Cc1noc(C)c1CN1CC2CN(CCS(=O)(=O)NCc3ccc(C#N)cc3)CC(C1)O2`: the D10 was above 5.5 mg/kg.
The figure for `N#Cc1ccc(S(=O)(=O)NCCN2CC3CN(CCCOc4ccc(F)c(F)c4)CC(C2)O3)cc1` is above 5.5 mg/kg; for `N#Cc1ccc(OCCN2CC3CN(CCCNS(=O)(=O)c4ccccc4)CC(C2)O3)c(F)c1` it is above 5.5 mg/kg.
